Drawing on patent US11673910B2, “Macrolides with modified desosamine sugars and uses thereof” (Zikani Therapeutics, Inc., priority 2017, dated 2023), this text covers MIC for 19 compounds.

As a reminder, the MIC is the least concentration at which growth counts as inhibited.

The structures appear in SMILES notation. ≈ marks a conversion by molar mass, not a printed value.

What all share (assay type): cell-based
The test system of test [1] is E. coli strain MP-4. Briefly: Broth dilution MIC determination (CLSI) against E. coli strain MP-4. Conditions: Escherichia coli, MP4. On the procedure: (§1) Minimum inhibitory concentrations (MICs) for macrolides described herein were determined for E. coli strain MP-4, K. pneumoniae strain MP-548, P. aeruginosa strain MP-3, A. baumannii strain MP-15, and S. aureus strain MP-12 using similar test procedures as published in US Pat. Pub. No. 2017/0305953. MIC data is represented as “+++” for values less than or equal to 4 mg/L, “++” for values of greater than or equal to 8 mg/L and less than 32 mg/L, and “+” for values of 32 mg/L or greater. ND indicates no data for a particular compound. CLSI standard procedures for broth dilution MIC determination were used.
On the technique in general: Dilution methods test growth across graded concentrations, often in twofold steps.

The test system of test [2] is S. aureus strain MP-12. The test is described as follows: Broth dilution MIC determination (CLSI) against S. aureus strain MP-12. Conditions: Staphylococcus aureus, MP12, strain MP-12. As for the experimental part: as §1
Test [3] concerns A. baumannii strain MP-15. Briefly: Broth dilution MIC determination (CLSI) against A. baumannii strain MP-15. Conditions: Acinetobacter baumannii, MP15. On the procedure: as §1
Test [4] concerns K. pneumoniae strain MP-548. The test is described as follows: Broth dilution MIC determination (CLSI) against K. pneumoniae strain MP-548. The conditions noted are these: Klebsiella pneumoniae, MP548. As for the experimental part:
as §1

Test [5] concerns P. aeruginosa strain MP-3. Briefly: Broth dilution MIC determination (CLSI) against P. aeruginosa strain MP-3. Conditions: Pseudomonas aeruginosa, MP3. As for the experimental part:
as §1

With `CC[C@H]1OC(=O)C(C)C(=O)[C@H](C)[C@@H](OC2OC(CN(C)C3CC3)CC(N(C)C)C2O)[C@](C)(OC)C[C@@H](C)CN(C)[C@H](C)[C@H]2NC(=O)O[C@@]21C` (some centres unmarked) [Compound 157, 3-Descladinosyl-3-oxo-6-O-methyl-11,12-dideoxy-12,11-(oxycarbonylimino)-6′-[N-(methyl)cyclopropylamino]Azithromycin], the MIC is no more than 4 µg/mL in test [1]; 8 to 32 µg/mL (≈ 11.5 to 45.9 µM) in test [2]; 8 to 32 µg/mL (≈ 11.5 to 45.9 µM) in test [3]; 8 to 32 µg/mL (≈ 11.5 to 45.9 µM) in test [4]; no less than 32 µg/mL in test [5].
Regarding `CC[C@H]1OC(=O)C(C)C(=O)[C@H](C)[C@@H](O[C@@H]2O[C@H](C(C)NCC3CC3)CC(N(C)C)[C@H]2O)[C@](C)(OC)C[C@@H](C)CN[C@H](C)[C@H]2NC(=O)O[C@@]21C` (stereo partly drawn) [Compound 178, 3-Descladinosyl-3-oxo-6-O-methyl-N9a-desmethyl-11,12-dideoxy-12,11-(oxycarbonylimino)-6′-((R,S)-(cyclopropylmethylamino)ethyl) Azithromycin], the MIC in test [1] is no more than 4 µg/mL; in test [2] it was no less than 32 µg/mL; in test [3], no less than 32 µg/mL; in test [4] it was 8 to 32 µg/mL (≈ 11.5 to 45.9 µM); in test [5], no less than 32 µg/mL.
As to `CC[C@H]1OC(=O)C(C)C(=O)[C@H](C)[C@@H](O[C@@H]2O[C@H](CNC3CC3)CC(N(C)C)[C@H]2O)[C@](C)(OC)C[C@@H](C)CN(C)[C@H](C)[C@H]2NC(=O)O[C@@]21C` (some centres unmarked) [Compound 161, 3-Descladinosyl-3-oxo-6-O-methyl-11,12-dideoxy-12,11-(oxycarbonylimino)-6′-cyclopropylamino Azithromycin], the MIC is no more than 4 µg/mL in test [1]; 8 to 32 µg/mL (≈ 11.7 to 46.9 µM) in test [2]; 8 to 32 µg/mL (≈ 11.7 to 46.9 µM) in test [3]; no more than 4 µg/mL in test [4]; no less than 32 µg/mL in test [5].
Take `CO[C@]1(C)C[C@@H](C)CN[C@H](C)[C@H]2NC(=O)O[C@]2(C)[C@@H](C)OC(=O)C(C)C(=O)[C@H](C)[C@H]1OC1OC(CNCC2CC2)CC(N(C)C)C1O` (some centres unmarked) [Compound 148, 3-Descladinosyl-3-oxo-6-O-methyl-N9a-desmethyl-11,12-dideoxy-12,11-(oxycarbonylimino)-6′-cyclopropylmethylamino-13-methyl Azithromycin]: the MIC in test [1], in test [2], in test [3], in test [4] and in test [5] was no less than 32 µg/mL throughout.
For the compound `CC[C@H]1OC(=O)C(C)C(=O)[C@H](C)[C@@H](O[C@@H]2OC(CNc3ccccc3F)CC(N(C)C)C2O)[C@](C)(OC)C[C@@H](C)CN[C@H](C)[C@H]2NC(=O)O[C@@]21C` (some centres unmarked) [Compound 47], the MIC in test [1] was no more than 4 µg/mL; in test [2], 8 to 32 µg/mL (≈ 11.1 to 44.3 µM); in test [3], no less than 32 µg/mL; in test [4], 8 to 32 µg/mL (≈ 11.1 to 44.3 µM); in test [5], no less than 32 µg/mL.
Turning to `CC[C@H]1OC(=O)C(C)C(=O)[C@H](C)[C@@H](OC2OC(CN(C)C(=O)C(C)(C)C)CC(N(C)C)C2O)[C@](C)(OC)C[C@@H](C)CN[C@H](C)[C@H]2NC(=O)O[C@@]21C` (some centres unmarked) [Compound 170, 3-Descladinosyl-3-oxo-6-O-methyl-N9a-desmethyl-11,12-dideoxy-12,11-(oxycarbonylimino)-6′-(N-methyl-N-pivaloylamino) Azithromycin], the MIC in test [1] was 8 to 32 µg/mL (≈ 11 to 44 µM); in test [2] it was no less than 32 µg/mL; in test [3], no less than 32 µg/mL; in test [4], no less than 32 µg/mL; in test [5], no less than 32 µg/mL.
As for `CC[C@H]1OC(=O)C(C)C(=O)[C@H](C)[C@@H](O[C@@H]2OC(CNc3ccc4ncncc4c3)CC(N(C)C)C2O)[C@](C)(OC)C[C@@H](C)CN[C@H](C)[C@H]2NC(=O)O[C@@]21C` (some centres unmarked) [Compound 27], the MIC in test [1] is 8 to 32 µg/mL (≈ 10.6 to 42.3 µM); in test [2], no less than 32 µg/mL; in test [3], no less than 32 µg/mL; in test [4] it was no less than 32 µg/mL; in test [5] it was no less than 32 µg/mL.
Regarding `CC[C@H]1OC(=O)C(C)C(=O)[C@H](C)[C@@H](O[C@@H]2O[C@H](C(=O)O)CC(N(C)C)[C@H]2O)[C@](C)(OC)C[C@@H](C)CN[C@H](C)[C@H]2NC(=O)O[C@@]21C` (some centres unmarked) [Compound 193], the MIC in test [1], in test [2], in test [3], in test [4] and in test [5] was no less than 32 µg/mL throughout.
`CC[C@H]1OC(=O)C(C)C(=O)[C@H](C)[C@@H](O[C@@H]2O[C@H](CC(C)C)CC(N(C)C)[C@H]2O)[C@](C)(OC)C[C@@H](C)CN[C@H](C)[C@H]2NC(=O)O[C@@]21C` (some centres unmarked) [Compound 184, 3-Desdadinosyl-3-oxo-6-O-methyl-N9a-desmethyl-11,12-dideoxy-12,11-(oxycarbonylimino)-6′-isopropyl Azithromycin]: the MIC is no more than 4 µg/mL in test [1]; no more than 4 µg/mL in test [2]; 8 to 32 µg/mL (≈ 12.2 to 48.8 µM) in test [3]; 8 to 32 µg/mL (≈ 12.2 to 48.8 µM) in test [4]; no less than 32 µg/mL in test [5].
As for `CC[C@H]1OC(=O)C(C)C(=O)[C@H](C)[C@@H](OC2OC(CNCCF)CC(N(C)C)C2O)[C@](C)(OC)C[C@@H](C)CN[C@H](C)[C@H]2NC(=O)O[C@@]21C` (some centres unmarked) [Compound 111, 3-Descladinosyl-3-oxo-6-O-methyl-N9a-desmethyl-11,12-dideoxy-12,11-(oxycarbonylimino)-6′-(2-fluoroethylamino) Azithromycin], the MIC in test [1] is no more than 4 µg/mL; in test [2], no less than 32 µg/mL; in test [3], no less than 32 µg/mL; in test [4] it was no more than 4 µg/mL; in test [5], no less than 32 µg/mL.
`CCCCCCCCNCC1CC(N(C)C)C(O)[C@H](O[C@@H]2[C@@H](C)C(=O)C(C)C(=O)O[C@H](CC)[C@@]3(C)OC(=O)N[C@@H]3[C@@H](C)NC[C@H](C)C[C@@]2(C)OC)O1` (some centres unmarked) [Compound 54]: the MIC is 8 to 32 µg/mL (≈ 10.8 to 43.2 µM) in test [1]; no less than 32 µg/mL in test [2]; no less than 32 µg/mL in test [3]; no less than 32 µg/mL in test [4]; no less than 32 µg/mL in test [5].
As for `CC[C@H]1OC(=O)[C@]2(C)CCO[C@](C)(C[C@@H](C)CN[C@H](C)[C@H]3NC(=O)O[C@@]31C)[C@H](O[C@@H]1O[C@H](CO)C[C@H](N(C)C)[C@H]1O)[C@@H](C)C2=O` [Compound 194], the MIC in test [1], in test [2], in test [3], in test [4] and in test [5] was no less than 32 µg/mL in each case.
Regarding `CC[C@H]1OC(=O)C(C)C(=O)[C@H](C)[C@@H](OC2OC(CNCC(N)=O)CC(N(C)C)C2O)[C@](C)(OC)C[C@@H](C)CN[C@H](C)[C@H]2NC(=O)O[C@@]21C` (some centres unmarked) [Compound 116, 3-Descladinosyl-3-oxo-6-O-methyl-N9a-desmethyl-11,12-dideoxy-12,11-(oxycarbonylimino)-6′-(N-acetamidylamino) Azithromycin], the MIC in test [1] was no more than 4 µg/mL; in test [2] it was no less than 32 µg/mL; in test [3] it was no less than 32 µg/mL; in test [4] it was no less than 32 µg/mL; in test [5], no less than 32 µg/mL.
On to `CC[C@H]1OC(=O)C(C)C(=O)[C@H](C)[C@@H](OC2OC(C(O)CNC3CC3)CC(N(C)C)C2O)[C@](C)(OC)C[C@@H](C)CN[C@H](C)[C@H]2NC(=O)O[C@@]21C` (some centres unmarked) [Compound 188, 3-Descladinosyl-3-oxo-6-O-methyl-8-oxo-N9a-desmethyl-11,12-dideoxy-12,11-(oxycarbonylimino)-6′-hydroxy-6′-cyclopropylaminomethyl Azithromycin], for which the MIC in test [1], in test [2], in test [3], in test [4] and in test [5] was no less than 32 µg/mL throughout.
As for `CC[C@H]1OC(=O)C(C)C(=O)[C@H](C)[C@@H](OC2OC(CNC(C)C)CC(N(C)C)C2O)[C@](C)(OC)C[C@@H](C)CN[C@H](C)[C@H]2NC(=O)O[C@@]21C` (some centres unmarked) [Compound 109, 3-Descladinosyl-3-oxo-6-O-methyl-N9a-desmethyl-11,12-dideoxy-12,11-(oxycarbonylimino)-6′-isopropylamino Azithromycin], the MIC is 8 to 32 µg/mL (≈ 11.9 to 47.7 µM) in test [1]; no less than 32 µg/mL in test [2]; no less than 32 µg/mL in test [3]; no less than 32 µg/mL in test [4]; no less than 32 µg/mL in test [5].
Turning to `CC[C@H]1OC(=O)[C@@]2(C)CC/C(=N\O)CO[C@](C)(C[C@@H](C)CN[C@H](C)[C@H]3NC(=O)O[C@@]31C)[C@H](OC1OC(C)CC(N(C)C)C1O)[C@@H](C)C2=O` (some centres unmarked) [Compound 227], the MIC in test [1], in test [2], in test [3], in test [4] and in test [5] was no less than 32 µg/mL each time.
Regarding `CC[C@H]1OC(=O)[C@@]2(C)CCOC(C)(C[C@@H](C)CN(C3CC3)[C@H](C)[C@H]3NC(=O)O[C@@]31C)[C@H](O[C@@H]1OC(C)CC(N(C)C)C1O)[C@@H](C)C2=O` (some centres unmarked) [Compound 210], the MIC was 8 to 32 µg/mL (≈ 12 to 48.1 µM) in test [1]; no more than 4 µg/mL in test [2]; no less than 32 µg/mL in test [3]; no less than 32 µg/mL in test [4]; no less than 32 µg/mL in test [5].
`CC[C@H]1OC(=O)[C@@](C)(F)C(=O)[C@H](C)[C@@H](O[C@@H]2OC(CNCc3cccnc3)CC(N(C)C)C2O)[C@](C)(OC)C[C@@H](C)C(=O)[C@H](C)[C@H]2NC(=O)O[C@@]21C` (some centres unmarked) [Compound 101]: the MIC was no less than 32 µg/mL in test [1]; no more than 4 µg/mL in test [2]; no less than 32 µg/mL in test [3]; no less than 32 µg/mL in test [4]; no less than 32 µg/mL in test [5].
Take `CC[C@H]1OC(=O)[C@@]2(C)CCO[C@](C)(C[C@@H](C)CN[C@H](C)[C@H]3NC(=O)O[C@@]31C)[C@H](O[C@@H]1O[C@H](CNC34CC(C3)C4)C[C@H](N(C)C)[C@H]1O)[C@@H](C)C2=O` [Compound 204]: the MIC is no more than 4 µg/mL in test [1]; no more than 4 µg/mL in test [2]; 8 to 32 µg/mL (≈ 11.3 to 45.3 µM) in test [3]; no more than 4 µg/mL in test [4]; no less than 32 µg/mL in test [5].
